Test results from ChEMBL document CHEMBL4229452, “Expanding chemical space of DNA-binding molecules with three base-binding units” (Bioorg Med Chem Lett, 2018).
Active and inactive are the calls of the source. No cut-off for these calls is given here.

Tests used:
Assay type in all cases: nucleic-acid assay
dsDNA [1] = experiment: Binding affinity to 5'-(CTAA CGG AATG)-3'/5'-(CATT CGG TTAG)-3' duplex DNA (unknown origin) assessed as change in melting temperature at 20 uM by UV-spectrophotometric method
dsDNA [2] = experiment: Binding affinity to 5'-(CTAA GGC AATG)-3'/5'-(CATT GGC TTAG)-3' duplex DNA (unknown origin) assessed as change in melting temperature at 20 uM by UV-spectrophotometric method
dsDNA [3] = experiment: Binding affinity to 5'-(CTAA CGG AATG)-3'/5'-(CATT CGG TTAG)-3' duplex DNA (unknown origin) assessed as apparent association […] constant at 60 uM by isothermal titration calorimetric method
dsDNA [4] = experiment: Binding affinity to 5'-(CTAA CGG AATG)-3'/5'-(CATT CGG TTAG)-3' duplex DNA (unknown origin) at < 10 uM by fluorescence titration method
dsDNA [5] = experiment: Binding affinity to 5'-(CTAA GGC AATG)-3'/5'-(CATT GGC TTAG)-3' duplex DNA (unknown origin) at < 10 uM by fluorescence titration method
dsDNA [6] = experiment: Binding affinity to 5'-(CTAA CGG AATG)-3'/5'-(CATT CGG TTAG)-3' duplex DNA (unknown origin) at 7.5 uM by fluorescence titration method
dsDNA [7] = experiment: Binding affinity to 5'-(CTAA GGC AATG)-3'/5'-(CATT GGC TTAG)-3' duplex DNA (unknown origin) at 7.5 uM by fluorescence titration method
dsDNA [8] = experiment: Binding affinity to 5'-(CTAA CGG AATG)-3'/5'-(CATT GGC TTAG)-3' duplex DNA (unknown origin) assessed as melting temperature at 5 uM by fluorimetric method
dsDNA [9] = experiment: Binding affinity to 5'-(CTAA CGA AATG)-3'/5'-(CATT GGT TTAG)-3' duplex DNA (unknown origin) assessed as melting temperature at 5 uM by fluorimetric method
dsDNA [10] = experiment: Binding affinity to 5'-(CTAA CGT AATG)-3'/5'-(CATT GGA TTAG)-3' duplex DNA (unknown origin) assessed as melting temperature at 5 uM by fluorimetric method
dsDNA [11] = experiment: Binding affinity to 5'-(CTAA GGC AATG)-3'/5'-(CATT CGG TTAG)-3' duplex DNA (unknown origin) assessed as melting temperature at 5 uM by fluorimetric method
dsDNA [12] = experiment: Binding affinity to 5'-(CTAA GGA AATG)-3'/5'-(CATT CGT TTAG)-3' duplex DNA (unknown origin) assessed as melting temperature at 5 uM by fluorimetric method
dsDNA [13] = experiment: Binding affinity to 5'-(CTAA GGT AATG)-3'/5'-(CATT CGA TTAG)-3' duplex DNA (unknown origin) assessed as melting temperature at 5 uM by fluorimetric method

| SMILES | ΔTm (dsDNA [1]) | ΔTm (dsDNA [2]) | Ka (dsDNA [3]) | Activity (dsDNA [4]) | Activity (dsDNA [5]) | Activity (dsDNA [3]) | Activity (dsDNA [6]) | Activity (dsDNA [7]) | Tm (dsDNA [8]) | Tm (dsDNA [9]) | Tm (dsDNA [10]) | Tm (dsDNA [11]) | Tm (dsDNA [12]) | Tm (dsDNA [13]) |
| --- | --- | --- | --- | --- | --- | --- | --- | --- | --- | --- | --- | --- | --- | --- |
| Cc1ccc2ccc(NC(=O)OCCCNCCCOC(=O)Nc3ccc4ccc(C)nc4n3)nc2n1 | 23 °C | 2 °C | 2.09 ×10⁷ /M | Active | Active |  |  |  |  |  |  |  |  |  |
| Cc1ccc2ccc(NC(=O)OCCCN(CCCOC(=O)Nc3ccc4ccc(C)nc4n3)CCCOC(=O)Nc3ccc4ccc(C)nc4n3)nc2n1 | 22.9 °C | 1.6 °C |  |  |  | inactive | Active | Active | 26.5 °C | 24.1 °C | 24.9 °C | 34.7 °C | 26.7 °C | 27.1 °C |
